Test results as given in publication PMC2917201 (Molecular cell, 2010).

Molecular target: T1, MuSK(cyto) (Rattus norvegicus, UniProt Q62838)
T1 sequence (Q62838 529-868): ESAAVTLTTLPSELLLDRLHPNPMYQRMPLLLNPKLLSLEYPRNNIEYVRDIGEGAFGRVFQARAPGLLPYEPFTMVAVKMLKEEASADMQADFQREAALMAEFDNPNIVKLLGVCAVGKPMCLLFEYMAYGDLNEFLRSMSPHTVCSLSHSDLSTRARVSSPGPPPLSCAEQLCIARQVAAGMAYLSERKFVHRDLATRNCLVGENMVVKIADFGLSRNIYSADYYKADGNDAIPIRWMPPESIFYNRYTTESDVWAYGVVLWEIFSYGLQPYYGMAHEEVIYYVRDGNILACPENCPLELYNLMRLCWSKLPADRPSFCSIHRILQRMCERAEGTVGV
Test: autophosphorylation, anti-pTyr754 immunoblot
Format: biochemical
Conditions: 5 mM ATP, 50 mM MgCl2, 25 mM Tris-HCl pH 7.5, 0.5 mM sodium vanadate, 10 mM TCEP, room temperature; MuSK alone, no Dok7

## Nc1ncnc2c1ncn2[C@@H]1O[C@H](COP(=O)(O)OP(=O)(O)OP(=O)(O)O)[C@@H](O)[C@H]1O [ATP]
  autophosphorylation, anti-pTyr754 immunoblot: With MuSK alone, incubation with Mg-ATP results in a relatively slow rate of autophosphorylation
